What was measured:
human androgen receptor = assay: androgenic activity rating (procedures described above; which test underlies the rating is not stated); set-up: key: −: no androgenic activity found; +: androgenic activity found; ++: high androgenic activity; +++: excellent androgenic activity; prodrug; conditions: compounds of the invention; rating scheme of Example 18
Description: Androgenic activity can be measured in various ways. Thus, the potency of androgens can be determined in vitro using the cytoplasmic androgen receptor from human breast tumor cells (MCF-7 cell line); see Bergink, E. W. et al, Comparison of the receptor binding properties of nandrolone and testosterone under in vitro and in vivo conditions, J. Steroid Biochem. 22, 831-836 (1985). It is also possible to use Chinese hamster ovary (CHO) cells transfected with the human androgen receptor (incubation time 16 h, temperature 4° C.) and compared with the affinity of 5α-dihydrotestosterone [according to the procedure described by Bergink, E. W. et al, J. Steroid Biochem. 19, 1563-1570 (1983)]. The transactivative androgen activity of the compounds of the invention can be measured, e.g. in Chinese hamster ovary cells (CHO) transfected with the human androgen receptor (hAR), in combination with a mouse mammary tumor virus (MMTV), and luciferase receptor gene (incubation time 16 h, temperature 37° C.) and compared with the activity of 5α-dihydrotestosterone [according to the procedure described by Schoonen, W. G. E. J. et al, Analyt. Biochem. 261, 222-224 (1998)]. For the in vivo potency determination of androgens the classical Hershberger test can be used. In this test the androgenic (increase in prostate weight) and anabolic activities [increase of the musculus levator ani (MLA)] of a compound are tested in immature castrated rats after daily administration for 7 days; see Hershberger, L. G. et al, Myotrophic activity of 19-Nortestosterone and other steroids determined by modified levator ani muscle method, Proceedings of the society for experimental biology and medicine 83, 175-180 (1953). Additionally, the effect of an androgenic compound on LH suppression can be tested in mature castrated rats according to Kumar, N. et al, The biological activity of 7alpha-methyl-19-nortestosterone is not amplified in male reproductive tract as is that of testosterone, Endocrinology 130, 3677-3683 (1992).
The compounds according to the invention and four reference compounds were tested for drogenic activity (the procedures for which have been described above) and rated according the following scheme: […]

In the case of C[C@@H]1CC2=CC(=O)CC[C@@H]2[C@H]2CC[C@]3(C)[C@](F)(CO)C[C@H]4C[C@]43[C@@H]21 [Example 9b, (7α,14β,15β,17β)-17-fluoro-17-(hydroxymethyl)-7-methyl-14,15-methyleneestra-4-en-3-one], the “Res. (androgenic activity)” value (human androgen receptor) is reported as “++”.
With CC[C@]12CC[C@H]3[C@@H]([C@H](C)CC4=CC(=O)CC[C@@H]43)[C@]13C[C@@H]3C[C@H]2CO [Example 6, (7α,14β,15β,17α)-13-Ethyl-17-(hydroxymethyl)-7-methyl-14,15-methylenegon-4-en-3-one] the “Res. (androgenic activity)” value (human androgen receptor) was “+++”.
With C[C@@H]1CC2=C(CC[C@H](O)C2)[C@H]2CC[C@]3(C)[C@H](CO)C[C@H]4C[C@]43[C@H]12 [Example 15b1] the “Res. (androgenic activity)” value (human androgen receptor) was “pro”.
For CC1=C2C[C@@H](C)[C@@H]3[C@H](CC[C@]4(C)[C@H](CO)C[C@H]5C[C@@]534)[C@H]2CCC1=O [Example 4, (7α,14β,15β,17α)-17-(Hydroxymethyl)-4,7-dimethyl-14,15-methyleneestr-4-en-3-one], the “Res. (androgenic activity)” value (human androgen receptor) was “++”.
For C[C@H]1[C@H]2C[C@]23[C@H]2[C@H](CC[C@]3(C)[C@@H]1CO)[C@H]1CCC(=O)C=C1C[C@H]2C [Example 7, (7α,14β,15β16β,17α)-17-(Hydroxymethyl)-7,16-dimethyl-14,15-methyleneestra-4-en-3-one], the “Res. (androgenic activity)” value (human androgen receptor) was “+”.
In the case of C[C@@H]1CC2=CC(=O)CC[C@@H]2[C@H]2CC[C@]3(C)[C@H](C(C)(C)O)C[C@H]4C[C@]43[C@@H]21 [Example 12, (7α,14β,15β,17α)-20-Hydroxy-7,20-dimethyl-14,15-methylene-19-norpregn-4-en-3-one], the “Res. (androgenic activity)” value (human androgen receptor) is reported as “+”.
In the case of C[C@H](O)[C@@H]1C[C@H]2C[C@]23[C@H]2[C@H](CC[C@]13C)[C@H]1CCC(=O)C=C1C[C@H]2C [Example 11a, (7α,14β,15β,17α,20S)-20-Hydroxy-7-methyl-14,15-methylene-19-norpregn-4-en-3-one], the “Res. (androgenic activity)” value (human androgen receptor) is reported as “++”.
For C[C@@H]1CC2=C[C@H](O)CC[C@@H]2[C@H]2CC[C@]3(C)[C@](O)(CO)C[C@H]4C[C@]43[C@@H]21 [Example 15c2, (3α,7α,15β,17β)-3,17-Dihydroxy-7-methyl-14,15-methyleneestr-4-ene-17-methanol], the “Res. (androgenic activity)” value (human androgen receptor) was “+”.
In the case of CC[C@H](O)[C@@H]1C[C@H]2C[C@]23[C@H]2[C@H](CC[C@]13C)[C@H]1CCC(=O)C=C1C[C@H]2C [Example 13], the “Res. (androgenic activity)” value (human androgen receptor) is reported as “+”.
With C[C@@H]1CC2=C(CCC(=O)C2)[C@H]2CC[C@]3(C)[C@H](CO)C[C@H]4C[C@]43[C@H]12 [Example 2, (7α,14,β15β,17α)-17-(Hydroxymethyl)-7-methyl-14,15-methyleneestr-5(10)-en-3-one] the “Res. (androgenic activity)” value (human androgen receptor) was “+”.
In the case of CC(=O)OC[C@]1(F)C[C@H]2C[C@]23[C@@H]2[C@H](C)CC4=C(CCC(=O)C4)[C@H]2CC[C@]13C [Example 10, (7α,14β,15β,17β)-17-[(Acetyloxy)methyl]-17-fluoro-7-methyl-14,15-methyleneestr-5(10)-en-3-one], the “Res. (androgenic activity)” value (human androgen receptor) is reported as “+”.
For C[C@@H]1CC2=CC(=O)CC[C@@H]2[C@H]2CC[C@]3(C)[C@H]([C@@H](C)O)C[C@H]4C[C@]43[C@@H]21 [Example 11b, (7α,14β,15β,17α,20R)-20-hydroxy-7-methyl-14,15-methylene-19-norpregn-4-en-3-one], the “Res. (androgenic activity)” value (human androgen receptor) was “+”.
For CC(=O)OC[C@@H]1C[C@H]2C[C@]23[C@H]2[C@H](CC[C@]13C)[C@H]1CCC(=O)C=C1C[C@H]2C [Example 14], the “Res. (androgenic activity)” value (human androgen receptor) was “++”.
In the case of CC(=O)OC[C@]1(F)C[C@H]2C[C@]23[C@H]2[C@H](CC[C@]13C)[C@H]1CCC(=O)C=C1C[C@H]2C [Example 9a, (7α,14β,15β,17β)-17-[(Acetyloxy)methyl]-17-fluoro-7-methyl-14,15-methyleneestr-4-en-3-one], the “Res. (androgenic activity)” value (human androgen receptor) is reported as “++”.
With CC[C@@H]1CC2=CC(=O)CC[C@@H]2[C@H]2CC[C@]3(C)[C@H](CO)C[C@H]4C[C@]43[C@H]12 [Example 5, (7α,14β,15β,17α)-7-Ethyl-17-(hydroxymethyl)-14,15-methyleneestr-4-en-3-one] the “Res. (androgenic activity)” value (human androgen receptor) was “++”.
For C[C@@H]1CC2=CC(=O)CC[C@@H]2[C@H]2CC[C@]3(C)[C@](O)(CO)C[C@H]4C[C@]43[C@@H]21 [Example 8, (7α,14β,15β,17β)-17-Hydroxy-17-(hydroxymethyl)-7-methyl-14,15-methyleneestr-4-en-3-one], the “Res. (androgenic activity)” value (human androgen receptor) was “+”.
With C[C@@H]1CC2=C(CC[C@@H](O)C2)[C@H]2CC[C@]3(C)[C@H](CO)C[C@H]4C[C@]43[C@H]12 [Example 15b2, (3α,7α,14β,15β,17α)-3-Hydroxy-7-methyl-14,15-methyleneestr-5(10)-ene-17-methanol] the “Res. (androgenic activity)” value (human androgen receptor) was “Pro”.
With C[C@@H]1CC2=C[C@@H](O)CC[C@@H]2[C@H]2CC[C@]3(C)[C@](O)(CO)C[C@H]4C[C@]43[C@@H]21 [Example 15c1, (3β,7α,14β,15β,17β)-3,17-Dihydroxy-7-methyl-14,15-methyleneestr-4-ene-17methanol] the “Res. (androgenic activity)” value (human androgen receptor) was “+”.
For C[C@@H]1CC2=CC(=O)CC[C@@H]2[C@H]2CC[C@]3(C)[C@H](CO)C[C@H]4C[C@]43[C@@H]21 [Example 1, (7α,14β,15β,17α)-17-(Hydroxymethyl)-7-methyl-14,15-methyleneestr-4-en-3-one], the “Res. (androgenic activity)” value (human androgen receptor) was “+++” and the melting point was 137 to 140 °C.
With C[C@@H]1CC2=CC(=O)CCC2=C2CC[C@]3(C)[C@H](CO)C[C@H]4C[C@]43[C@@H]21 [Example 3, (7α,14β,15β17α)-17-(Hydroxymethyl)-7-methyl-14,15-methyleneestra-4,9-dienes-3-one] the “Res. (androgenic activity)” value (human androgen receptor) was “++”.
With C[C@@H]1CC2=C[C@@H](O)CC[C@@H]2[C@H]2CC[C@]3(C)[C@H](CO)C[C@H]4C[C@]43[C@@H]21 [Example 15a, (3β,7α,14β,15β,17α)-3-Hydroxy-7-methyl-14,15-methyleneestr-4-ene-17-methanol] the “Res. (androgenic activity)” value (human androgen receptor) was “+++”.
